Test results as given in patent US20040185094A1, “Pharmaceutical” (priority 2000, published 2004).
Entries after “also recorded” stand apart in the source; their conditions may differ.

Key:
rabbit corpus cavernosum [1] = test: Effect of EBIO on cGMP-mediated (SNP-induced) relaxation; format: cell-based; details: EBIO 50 μM; SNP dose response
rabbit corpus cavernosum [2] = test: Direct relaxant effect of EBIO on contracted corpus cavernosum strips in organ baths; format: cell-based
rabbit corpus cavernosum [3] = test: Effect on electrical field stimulation (EFS)-induced relaxation; format: cell-based
Experimental: Male New Zealand White rabbits (2.0-3.0 Kg) were killed by cervical dislocation. The abdominal cavity was opened and the penis excised, starting at the base of the organ at the pelvic bones. The corpus cavernosum was carefully dissected free from the surrounding tunica albuginea—2 tissue strips, approximately 10 mm×3 mm×2 mm in size, were obtained from each penis. The dissection was carried out in Krebs Ringer Solution. Tissues were used on the day of harvest.
The strips of corpus cavernosum and were mounted with surgical suture in 5 ml Wesley & Co. organ baths, and immersed in Kreb's solution maintained at 37° C. and aerated with 5% CO2/95% O2 to attain pH 7.4. The suture was connected to a force displacement transducer (Maywood Instruments Ltd.) and changes in isometric tension were recorded on the DART in vitro computer package. The tissues were put under an initial resting tension of 1.5 g and allowed to equilibrate for 1 hour. During equilibration, the tissues were rinsed at 5 ml/min. The approximate tissue tension after equilibration was 1 g. The tissues were then sensitised to contraction with phenylephrine (PE) (10 μM) and KCl (120 mM), and relaxation with sodium nitroprusside (SNP) (100 μM).
Tissues were bathed in “normal” Kreb's containing 5 μM guanethidine and 1 μM atropine, to block NA release and receptors respectively. EFS was delivered by a MS3 stimulator connected to 2 platinum electrodes which were placed at the top and bottom of the organ chambers. EFS parameters are as follows: Voltage=45-65V, Frequency=2-32 Hz, Pulse Width=0.2 ms, Train Duration=10 s. […] An EFS curve involved stimulating PE-contracted tissues at 2 Hz, 4 Hz, 8 Hz, 16 Hz and 32 Hz, and the degree of relaxation was measured by taking the minimum reading from the maximum reading obtained over a 30 s period. […]
For each dose response curve, the relaxation responses are expressed as a percentage of the PE-induced contraction. […] For EFS response curves, the degree of relaxation was expressed as a percentage of the PE-induced contraction. […]

rabbit corpus cavernosum [4] = test: Mechanism of EBIO-induced relaxation (L-NOARG incubation, endothelium removal); format: cell-based; details: PE (10 μM) contracted
rabbit aorta = test: Selectivity of EBIO for corpus cavernosum over cardiovascular tissue (isolated aorta); format: cell-based; details: in vitro
Experimental: PE (1 μM) or 80 mM K^+ contracted rabbit aorta sections were subjected to half-log unit cumulative additions of EBIO (10 nM-1 mM) with approximately 10 minute intervals between each addition.
For each dose response curve, the relaxation responses are expressed as a percentage of the PE-induced contraction. The mean values±s.e. mean are then plotted against log[drug] concentration. Sigmoidal curves were fitted to the data using Origin curve fitting computer package. For the purpose of curve fitting, the minimum relaxation response is constrained to 0% and the maximum relaxation response is allowed to free fit. For EFS response curves, the degree of relaxation was expressed as a percentage of the PE-induced contraction. These values were then plotted against the frequency of stimulation.

| Molecule | effect on SNP-induced relaxation of PE-contracted corpus cavernosum (rabbit corpus cavernosum [1]) | effect on blood pressure in vivo (Blood pressure in vivo) | IC20 (rabbit corpus cavernosum [2]; Oryctolagus cuniculus, relaxation of rabbit corpus cavernosum) [µM] | relaxation of PE-contracted rabbit corpus cavernosum (rabbit corpus cavernosum [2]; PE (10 μM) contracted, EBIO 10 nM-1 mM cumulative, in vitro) | concentrations at which basal tone is suppressed (rabbit corpus cavernosum [2]; rabbit corpus cavernosum basal tone) [µM] | effect on EFS-induced relaxation of PE-contracted corpus cavernosum (rabbit corpus cavernosum [3]; EBIO 50 μM, 2-32 Hz) | EBIO-induced relaxation in the presence of L-NOARG (NOS inhibitor) (rabbit corpus cavernosum [4]; L-NOARG) | EBIO-induced relaxation in endothelium deprived corpus cavernosum (rabbit corpus cavernosum [4]; endothelium removed) | concentrations at which a relaxant effect on rabbit aorta occurs (rabbit aorta) [µM] | relaxant effect on rabbit aorta (rabbit aorta; PE (1 μM) or 80 mM K+ contracted, concentrations up to 100 μM) | effect of ChTX on EBIO-induced potentiation of EFS-induced relaxation (rabbit corpus cavernosum [3]; ChTX 100 nM with EBIO 50 μM) | attenuation of endogenous NO-mediated (EFS-induced) relaxation (rabbit corpus cavernosum [3]; ChTX 100 nM, across the frequency range) |
| --- | --- | --- | --- | --- | --- | --- | --- | --- | --- | --- | --- | --- |
| CCn1c(=O)[nH]c2ccccc21 [EBIO, 1-ethyl-2-benzimidazolinone] | potentiates; also recorded: enhanced | no effect | ~50 | concentration-dependent relaxation; also recorded: concentration dependent relaxation | ≥ 10 | greatly potentiates; also recorded: enhanced | still observed | still observed; also recorded: not affected | ≥ 100 | no relaxant effect | – | – |
| charybdotoxin [ChTX] | – | – | – | – | – | – | – | – | – | – | caused a reduction; also recorded: sensitive | up to 30% |
